{"source": "patent US8343475B2", "about": "“Small cationic antimicrobial peptides” (priority 2006, dated 2013)", "type_in_all_cases": "cell-based", "key": {"[1]": {"system": "MCP-3 release by human PBMC", "assay": "Chemokine induction in PBMC (capture ELISA)", "settings": "background (6) subtracted", "how_it_was_run": "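Human PBMC from healthy donors (Ficoll-isolated), 7.5×10^5 cells at 0.75–1×10^6 cells/ml, treated with peptides at 20 or 100 μg/ml for 24 h at 37° C, 5% CO2. MCP-3 in cell-free supernatants measured by capture ELISA.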"}, "[2]": {"system": "clinical isolate of Staphylococcus epidermidis", "settings": "clinical isolate of", "how_it_was_run": "(§1)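 Broth microdilution in Mueller Hinton medium; peptides serially diluted at 10× in 0.01% acetic acid with 0.2% BSA, then added to polypropylene plates. Inoculum 2-7×10^5 CFU/ml from overnight culture, incubated overnight at 37° C. MIC = lowest concentration showing no growth.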"}, "[3]": {"system": "Staphylococcus aureus ATCC25923", "settings": "ATCC25923", "how_it_was_run": "as §1"}, "[4]": {"system": "lab isolate of Candida albicans", "settings": "lab isolate of", "how_it_was_run": "as §1"}, "[5]": {"system": "wild-type Salmonella enterica ssp. typhimurium", "how_it_was_run": "as §1"}, "[6]": {"system": "Enterococcus faecalis ATCC29212", "settings": "ATCC29212", "how_it_was_run": "as §1"}, "[7]": {"system": "Escherichia coli UB1005", "settings": "UB1005", "how_it_was_run": "as §1"}, "[8]": {"system": "Pseudomonas aeruginosa PAO1 strain H103", "settings": "PAO1", "how_it_was_run": "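Modified broth microdilution MIC in Mueller Hinton medium, peptides diluted in 0.01% acetic acid/0.2% BSA, polypropylene plates. Inoculum 2-7×10^5 CFU/ml, overnight at 37 °C; MIC is the lowest concentration with no visible growth.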"}}, "note": "Residues, ends and D or L forms follow the SMILES beside them.", "data": [{"compound": "CC[C@H](C)[C@H](N)C(=O)N[C@@H](Cc1c[nH]c2ccccc12)C(=O)N[C@H](C(=O)N[C@H](C(=O)N[C@@H](Cc1c[nH]c2ccccc12)C(=O)N[C@@H](CCCNC(=N)N)C(=O)N[C@@H](CCCNC(=N)N)C(N)=O)[C@@H](C)CC)C(C)C", "note": "[HH18, IWVIWRR-NH2] (H-IWVIWRR-NH2; N-terminus assumed)", "values": [{"measurement": "Chemokine induction MCP-3", "setting": "[1]; 20 μg/ml peptide", "value": 32, "unit": "pg/mL"}, {"measurement": "Chemokine induction MCP-3", "setting": "[1]; 100 μg/ml peptide", "value": 431, "unit": "pg/mL"}, {"measurement": "MIC S. epi.", "setting": "[2]", "value": 6, "unit": "µg/mL"}, {"measurement": "MIC S. aureus", "setting": "[3]", "value": 25, "unit": "µg/mL"}, {"measurement": "MIC C. albicans", "setting": "[4]", "value": 25, "unit": "µg/mL"}, {"measurement": "MIC S. typhi", "setting": "[5]", "value": 12.5, "unit": "µg/mL"}, {"measurement": "MIC E. faecalis", "setting": "[6]", "value": 25, "unit": "µg/mL"}, {"measurement": "MIC E. coli", "setting": "[7]", "value": 6, "unit": "µg/mL"}, {"measurement": "MIC P. aerug", "setting": "[8]", "value": 50, "unit": "µg/mL"}]}]}
